From ChEMBL document CHEMBL1201861, “Genomics of Drug Sensitity in Cancer screening data, Wellcome Trust Sanger Institute”

Key:
Test in all cases: cells
Conditions in all cases: Homo sapiens
SBC-1 = format: functional, cell-based;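 note: cell viability assay measuring growth inhibition of the SBC-1 cell line, IC50 being the concentration that halves growth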
Description: SANGER: Inhibition of human SBC-1 cell growth in a cell viability assay.

KY821 = format: functional, cell-based;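 note: growth inhibition of human KY821 cells, read out by a cell viability assay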
Description: SANGER: Inhibition of human KY821 cell growth in a cell viability assay.

TE-10 = format: functional, cell-based;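 note: growth inhibition of TE-10 cells, measured by a cell viability assay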
Description: SANGER: Inhibition of human TE-10 cell growth in a cell viability assay.

MZ7-mel = format: functional, cell-based;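 note: growth inhibition of human MZ7-mel cells, measured by a cell viability assay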
Description: SANGER: Inhibition of human MZ7-mel cell growth in a cell viability assay.

ES1 = format: functional, cell-based;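 note: growth inhibition of ES1 cells, read out with a cell viability assay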
Description: SANGER: Inhibition of human ES1 cell growth in a cell viability assay.

GCIY = format: functional, cell-based;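 note: growth inhibition of the human GCIY cell line, read out by a cell viability assay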
Description: SANGER: Inhibition of human GCIY cell growth in a cell viability assay.

LB2241-RCC = format: functional, cell-based;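 note: cell viability assay measuring how strongly the cultured human renal carcinoma line is prevented from growing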
Description: SANGER: Inhibition of human LB2241-RCC cell growth in a cell viability assay.

A101D = format: functional, cell-based;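 note: growth inhibition of the cell line, measured with a viability assay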
Description: SANGER: Inhibition of human A101D cell growth in a cell viability assay.

Calu-6 = format: functional, cell-based;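 note: growth of human Calu-6 cells, read out by a cell viability assay, IC50 marking inhibition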
Description: SANGER: Inhibition of human Calu-6 cell growth in a cell viability assay.

NCI-H446 = format: functional, cell-based;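 note: growth inhibition of NCI-H446 cells determined by a cell viability assay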
Description: SANGER: Inhibition of human NCI-H446 cell growth in a cell viability assay.

BB30-HNC = format: functional, cell-based;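 note: growth inhibition of the cultured cell line, read out by a cell viability assay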
Description: SANGER: Inhibition of human BB30-HNC cell growth in a cell viability assay.

COLO-800 = format: functional, cell-based;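 note: growth inhibition of COLO-800 cells, read out with a cell viability assay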
Description: SANGER: Inhibition of human COLO-800 cell growth in a cell viability assay.

SK-MEL-2 = format: functional, cell-based;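 note: growth inhibition of human SK-MEL-2 cells measured with a cell viability assay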
Description: SANGER: Inhibition of human SK-MEL-2 cell growth in a cell viability assay.

NCI-H1155 = format: functional, cell-based;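 note: cell growth inhibition measured by a viability assay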
Description: SANGER: Inhibition of human NCI-H1155 cell growth in a cell viability assay.

LS-123 = format: functional, cell-based
Description: SANGER: Inhibition of human LS-123 cell growth in a cell viability assay.

HuTu80 = format: functional, cell-based, HUTU-80;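 note: growth inhibition of HuTu80 human cells, determined with a cell viability readout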
Description: SANGER: Inhibition of human HUTU-80 cell growth in a cell viability assay.

COLO-668 = format: functional, cell-based
Description: SANGER: Inhibition of human COLO-668 cell growth in a cell viability assay.

LB771-HNC = format: functional, cell-based;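 note: growth inhibition of LB771-HNC human cells, read out with a cell viability assay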
Description: SANGER: Inhibition of human LB771-HNC cell growth in a cell viability assay.

OS-RC-2 = format: functional, cell-based;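 note: growth inhibition of human OS-RC-2 cells, measured by a cell viability assay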
Description: SANGER: Inhibition of human OS-RC-2 cell growth in a cell viability assay.

A704 = format: functional, cell-based;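 note: growth inhibition of human A704 cells, read out with a cell viability assay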
Description: SANGER: Inhibition of human A704 cell growth in a cell viability assay.

HT-144 = format: functional, cell-based
Description: SANGER: Inhibition of human HT-144 cell growth in a cell viability assay.

IST-MEL1 = format: functional, cell-based;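 note: growth inhibition of the cell line, read out with a cell viability assay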
Description: SANGER: Inhibition of human IST-MEL1 cell growth in a cell viability assay.

RXF 393 = format: functional, cell-based;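 note: growth inhibition of human RXF 393 cells, read out with a cell viability assay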
Description: SANGER: Inhibition of human RXF393 cell growth in a cell viability assay.

NCI-H69 = format: functional, cell-based;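 note: growth inhibition of the cell line, read out with a cell viability assay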
Description: SANGER: Inhibition of human NCI-H69 cell growth in a cell viability assay.

NCI-H209 = format: functional, cell-based;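 note: growth inhibition of human NCI-H209 cells, measured by a cell viability assay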
Description: SANGER: Inhibition of human NCI-H209 cell growth in a cell viability assay.

ES3 = format: functional, cell-based;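 note: growth inhibition of ES3 cells, read out with a cell viability assay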
Description: SANGER: Inhibition of human ES3 cell growth in a cell viability assay.

JAR = format: functional, cell-based;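 note: growth inhibition of human JAR cells determined with a cell viability assay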
Description: SANGER: Inhibition of human JAR cell growth in a cell viability assay.

SHP77 = format: functional, cell-based, SHP-77;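 note: growth inhibition of human SHP-77 cells measured by a cell viability assay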
Description: SANGER: Inhibition of human SHP-77 cell growth in a cell viability assay.

OCI-AML2 = format: functional, cell-based;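 note: growth inhibition of OCI-AML2 cells, read out with a cell viability assay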
Description: SANGER: Inhibition of human OCI-AML2 cell growth in a cell viability assay.

DMS-114 = format: functional, cell-based
SNU-5 = format: functional, cell-based;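 note: cell viability readout used to measure growth inhibition in human NCI-SNU-5 cells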
Description: SANGER: Inhibition of human NCI-SNU-5 cell growth in a cell viability assay.

SNU-C2B = format: functional, cell-based;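 note: cell viability readout used to measure compound-driven suppression of SNU-C2B cell proliferation, IC50 marking half-maximal growth inhibition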
Description: SANGER: Inhibition of human SNU-C2B cell growth in a cell viability assay.

A3-KAW = format: functional, cell-based;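 note: growth inhibition of human A3-KAW cells, read out with a cell viability assay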
Description: SANGER: Inhibition of human A3-KAW cell growth in a cell viability assay.

GOTO = format: functional, cell-based;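 note: growth inhibition of GOTO cells, read out by a cell viability assay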
Description: SANGER: Inhibition of human GOTO cell growth in a cell viability assay.

IA-LM = format: functional, cell-based;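 note: cell viability assay measuring growth inhibition of human IA-LM cells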
Description: SANGER: Inhibition of human IA-LM cell growth in a cell viability assay.

SW872 = format: functional, cell-based;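 note: growth inhibition of SW872 cells, read out by a viability assay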
Description: SANGER: Inhibition of human SW872 cell growth in a cell viability assay.

SJSA-1 = format: functional, cell-based;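 note: growth inhibition of human SJSA-1 cells, read out through a cell viability measurement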
Description: SANGER: Inhibition of human SJSA-1 cell growth in a cell viability assay.

P30-OHK = format: functional, cell-based;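 note: growth inhibition of the P30-OHK cell line, read out with a cell viability assay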
Description: SANGER: Inhibition of human P30-OHK cell growth in a cell viability assay.

BE-13 = format: functional, cell-based;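 note: growth inhibition of human BE-13 cells, measured with a cell viability assay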
Description: SANGER: Inhibition of human BE-13 cell growth in a cell viability assay.

C8166 = format: functional, cell-based;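 note: growth inhibition of human C8166 cells measured by a cell viability assay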
Description: SANGER: Inhibition of human C8166 cell growth in a cell viability assay.

KMOE-2 = format: functional, cell-based;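 note: growth inhibition of human KMOE-2 cells, read out with a cell viability assay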
Description: SANGER: Inhibition of human KMOE-2 cell growth in a cell viability assay.

EW-24 = format: functional, cell-based;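 note: human EW-24 cancer cell line, growth inhibition read out via a cell viability assay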
Description: SANGER: Inhibition of human EW-24 cell growth in a cell viability assay.

ES8 = format: functional, cell-based;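 note: growth inhibition of human ES8 cells, read out with a cell viability assay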
Description: SANGER: Inhibition of human ES8 cell growth in a cell viability assay.

HCE-4 = format: functional, cell-based;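 note: cell viability assay measuring inhibition of growth in the human HCE-4 cell line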
Description: SANGER: Inhibition of human HCE-4 cell growth in a cell viability assay.

A388 = format: functional, cell-based;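 note: growth inhibition of human A388 cells, read out with a cell viability assay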
Description: SANGER: Inhibition of human A388 cell growth in a cell viability assay.

KGN = format: functional, cell-based;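 note: growth inhibition of KGN cells, read out with a cell viability assay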
Description: SANGER: Inhibition of human KGN cell growth in a cell viability assay.

ACN = format: functional, cell-based;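 note: growth inhibition of the human ACN cell line, read out via cell viability testing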
Description: SANGER: Inhibition of human ACN cell growth in a cell viability assay.

EW-3 = format: functional, cell-based;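 note: cell viability assay read-out, IC50 reflects inhibition of growth of the EW-3 cells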
Description: SANGER: Inhibition of human EW-3 cell growth in a cell viability assay.

EOL1 = format: functional, cell-based;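 note: growth inhibition of EoL-1 cells, read out by a cell viability assay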
Description: SANGER: Inhibition of human EoL-1-cell cell growth in a cell viability assay.

K5 = format: functional, cell-based
Description: SANGER: Inhibition of human K5 cell growth in a cell viability assay.

EW-18 = format: functional, cell-based;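 note: growth inhibition of EW-18 cells, read out by a cell viability assay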
Description: SANGER: Inhibition of human EW-18 cell growth in a cell viability assay.

LNCaP-Clone-FGC = format: functional, cell-based
Description: SANGER: Inhibition of human LNCaP-Clone-FGC cell growth in a cell viability assay.

COR-L88 = format: functional, cell-based;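 note: growth inhibition of COR-L88 cells, read out with a cell viability assay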
Description: SANGER: Inhibition of human COR-L88 cell growth in a cell viability assay.

CCRF-CEM = format: functional, cell-based
Description: SANGER: Inhibition of human CCRF-CEM cell growth in a cell viability assay.

EW-1 = format: functional, cell-based
Description: SANGER: Inhibition of human EW-1 cell growth in a cell viability assay.

SK-N-FI = format: functional, cell-based
Description: SANGER: Inhibition of human SK-N-FI cell growth in a cell viability assay.

SK-PN-DW = format: functional, cell-based
Description: SANGER: Inhibition of human SK-PN-DW cell growth in a cell viability assay.

NB6 = format: functional, cell-based
Description: SANGER: Inhibition of human NB6 cell growth in a cell viability assay.

QIMR-WIL = format: functional, cell-based
Description: SANGER: Inhibition of human QIMR-WIL cell growth in a cell viability assay.

LS-513 = format: functional, cell-based
Description: SANGER: Inhibition of human LS-513 cell growth in a cell viability assay.

LB831-BLC = format: functional, cell-based
Description: SANGER: Inhibition of human LB831-BLC cell growth in a cell viability assay.

GB-1 = format: functional, cell-based
Description: SANGER: Inhibition of human GB-1 cell growth in a cell viability assay.

RKO = format: functional, cell-based
Description: SANGER: Inhibition of human RKO cell growth in a cell viability assay.

IST-SL1 = format: functional, cell-based
Description: SANGER: Inhibition of human IST-SL1 cell growth in a cell viability assay.

KM12 = format: functional, cell-based
Description: SANGER: Inhibition of human KM12 cell growth in a cell viability assay.

TE-6 = format: functional, cell-based
Description: SANGER: Inhibition of human TE-6 cell growth in a cell viability assay.

Compound: CCNC(=O)c1noc(-c2cc(C(C)C)c(O)cc2O)c1-c1ccc(CN2CCOCC2)cc1 [LUMINESPIB]
- IC50 (SBC-1): > 256 nM
- IC50 (KY821): > 256 nM
- IC50 (TE-10): 19.8 nM
- IC50 (MZ7-mel): 43.3 nM
- IC50 (ES1): 2.66 nM
- IC50 (GCIY): 20.6 nM
- IC50 (LB2241-RCC): 36.4 nM
- IC50 (A101D): 19.9 nM
- IC50 (Calu-6): 79.6 nM
- IC50 (NCI-H446): > 0.256 µM
- IC50 (BB30-HNC): 9.52 nM
- IC50 (COLO-800): > 256 nM
- IC50 (SK-MEL-2): 125 nM
- IC50 (NCI-H1155): > 256 nM
- IC50 (LS-123): 24.4 nM
- IC50 (HuTu80): 20 nM
- IC50 (COLO-668): 79.8 nM
- IC50 (LB771-HNC): > 256 nM
- IC50 (OS-RC-2): 34 nM
- IC50 (A704): > 256 nM
- IC50 (HT-144): 1.55 nM
- IC50 (IST-MEL1): 8.52 nM
- IC50 (RXF 393): 8.6 nM
- IC50 (NCI-H69): > 256 nM
- IC50 (NCI-H209): > 256 nM
- IC50 (ES3): 87.6 nM
- IC50 (JAR): > 0.256 µM
- IC50 (SHP77): 145 nM
- IC50 (OCI-AML2): 12.8 nM
- IC50 (DMS-114): > 256 nM
- IC50 (SNU-5): > 256 nM
- IC50 (SNU-C2B): 12.7 nM
- IC50 (A3-KAW): 227 nM
- IC50 (GOTO): 172 nM
- IC50 (IA-LM): 10.9 nM
- IC50 (SW872): 32.2 nM
- IC50 (SJSA-1): 20.4 nM
- IC50 (P30-OHK): > 256 nM
- IC50 (BE-13): > 256 nM
- IC50 (C8166): 11.3 nM
- IC50 (KMOE-2): 57.5 nM
- IC50 (EW-24): > 256 nM
- IC50 (ES8): 35.4 nM
- IC50 (HCE-4): 21.4 nM
- IC50 (A388): 21.2 nM
- IC50 (KGN): 7.03 nM
- IC50 (ACN): 16.6 nM
- IC50 (EW-3): 175 nM
- IC50 (EOL1): > 256 nM
- IC50 (K5): 13.1 nM
- IC50 (EW-18): 106 nM
- IC50 (LNCaP-Clone-FGC): 81.7 nM
- IC50 (COR-L88): 171 nM
- IC50 (CCRF-CEM): 23.3 nM
- IC50 (EW-1): 28.2 nM
- IC50 (SK-N-FI): > 0.256 µM
- IC50 (SK-PN-DW): 55.9 nM
- IC50 (NB6): > 256 nM
- IC50 (QIMR-WIL): 12.7 nM
- IC50 (LS-513): 74.6 nM
- IC50 (LB831-BLC): 32.2 nM
- IC50 (GB-1): 21.9 nM
- IC50 (RKO): 8.26 nM
- IC50 (IST-SL1): > 256 nM
- IC50 (KM12): 14 nM
- IC50 (TE-6): 246 nM

Compound: CO[C@@]12[C@H](COC(N)=O)C3=C(C(=O)C(C)=C(N)C3=O)N1C[C@@H]1N[C@@H]12 [MITOMYCIN]
- IC50 (SBC-1): 448 nM
- IC50 (KY821): 1650 nM
- IC50 (TE-10): 72.6 nM
- IC50 (MZ7-mel): 333 nM
- IC50 (ES1): < 62.5 nM
- IC50 (GCIY): 411 nM
- IC50 (LB2241-RCC): < 62.5 nM
- IC50 (A101D): 257 nM
- IC50 (Calu-6): 320 nM
- IC50 (NCI-H446): 12.4 µM
- IC50 (BB30-HNC): 30.6 nM
- IC50 (COLO-800): 78.7 nM
- IC50 (SK-MEL-2): 3970 nM
- IC50 (NCI-H1155): 873 nM
- IC50 (LS-123): 1720 nM
- IC50 (HuTu80): < 62.5 nM
- IC50 (COLO-668): < 62.5 nM
- IC50 (LB771-HNC): 780 nM
- IC50 (OS-RC-2): 264 nM
- IC50 (A704): 2380 nM
- IC50 (HT-144): 23.8 nM
- IC50 (IST-MEL1): < 62.5 nM
- IC50 (RXF 393): 4390 nM
- IC50 (NCI-H69): 1680 nM
- IC50 (NCI-H209): < 62.5 nM
- IC50 (ES3): < 62.5 nM
- IC50 (JAR): 4.56 µM
- IC50 (SHP77): 1380 nM
- IC50 (OCI-AML2): < 62.5 nM
- IC50 (DMS-114): 2090 nM
- IC50 (SNU-5): 141 nM
- IC50 (SNU-C2B): 295 nM
- IC50 (A3-KAW): 35 nM
- IC50 (GOTO): 554 nM
- IC50 (IA-LM): 109 nM
- IC50 (SW872): < 62.5 nM
- IC50 (SJSA-1): 132 nM
- IC50 (P30-OHK): < 62.5 nM
- IC50 (BE-13): < 62.5 nM
- IC50 (C8166): 932 nM
- IC50 (KMOE-2): 1620 nM
- IC50 (EW-24): 783 nM
- IC50 (ES8): < 62.5 nM
- IC50 (HCE-4): 57.9 nM
- IC50 (A388): 207 nM
- IC50 (KGN): 207 nM
- IC50 (ACN): 128 nM
- IC50 (EW-3): 61.9 nM
- IC50 (EOL1): 162 nM
- IC50 (K5): 1780 nM
- IC50 (EW-18): 3940 nM
- IC50 (LNCaP-Clone-FGC): 450 nM
- IC50 (COR-L88): 319 nM
- IC50 (CCRF-CEM): 61.7 nM
- IC50 (EW-1): 88.1 nM
- IC50 (SK-N-FI): > 16 µM
- IC50 (SK-PN-DW): 63.8 nM
- IC50 (NB6): 2230 nM
- IC50 (QIMR-WIL): 120 nM
- IC50 (LS-513): 1180 nM
- IC50 (LB831-BLC): 816 nM
- IC50 (GB-1): 452 nM
- IC50 (RKO): 125 nM
- IC50 (IST-SL1): 1450 nM
- IC50 (KM12): 1080 nM
- IC50 (TE-6): 894 nM
